Test results reported in patent publication US12274898B2, “Substituted benzodiazepines as antibody-drug conjugates” (priority 2018, dated 2025).
Non-standard residues stand in square brackets, D forms with d. Residues, ends and D or L forms follow the SMILES beside them. Dolaproine = CO[C@@H]([C@@H]1CCCN1)[C@@H](C)C(=O)O; Dil = CC[C@H](C)[C@H](NC)[C@@H](CC(=O)O)OC; NMeV = CN[C@H](C(=O)O)C(C)C

Key:
NCI-N87 cancer cells [1] = experiment: In vitro analysis of benzodiazepine dimer derivatives, cell viability by MTT assay; assay type: cell-based; settings: 6 days incubation, sigmoidal dose-response fit
Protocol: NCI-N87 cancer cells were seeded into 24-well plates at 25×10^3 cells/1 mL medium/well. The plates were incubated for 24 hours at 37° C. in a humidified 5% CO2-in-air atmosphere. Benzodiazepine dimer derivatives were dissolved initially in DMSO at a concentration of 10 mM. Serial dilutions were made in DMSO. The series of compound dilutions in DMSO were added to triplicate wells of 24-well plates at 5 μL per well. Three wells on each individual plate received 5 μL of DMSO without compound as controls. The final concentration of DMSO per well was 0.5%. The plates were incubated for 6 days at 37° C. in a humidified 5% CO2-in-air atmosphere. Cell viability was determined by the MTT assay and IC50 was generated using a sigmoidal dose-response nonlinear regression curve fit (GraphPad Software Inc.). Results thereof are shown in FIG. 1, FIG. 2, FIG. 3, and Table 2.

[2] = Solubility test: relative solubility by retention time on analytical HPLC; assay type: physicochemical; settings: HPLC retention times under acidic (0.1% TFA); RP-C18, 5→95% ACN in water over 15 minutes; measure of relative solubility
Protocol: A solubility study was conducted to check the relative solubility of D-102, D-103, D-104, D-105, D-106, and D-107 on the retention time using analytical HPLC.

NCI-N87 cancer cells [3] = experiment: In vitro analysis of protein-drug conjugates (cell cytotoxicity of antibody-drug conjugate), MTT assay; assay type: cell-based; settings: ADCs, 6 days incubation
Protocol: NCI-N87cancer cells were seeded in 96-well plates at a density 5000 cells per well in 100 μL of medium, and cultured for 24 hours. The four compounds ADCs in Example 77 were treated by serial dilutions of 1:4 from 50 nM to 0.0003 nM, and the antibody drug conjugate T-DM1 was treated by serial dilutions of 1:4 from 50 nM to 0.0007 nM. The series of compound dilutions in DMSO were added to triplicate wells of […] at 5 μL per well. Three wells on each individual plate received 5 μL of DMSO without compound as controls. The final concentration of DMSO per well was 0.5%. The plates were incubated for 6 days at 37° C. in a humidified 5% CO2-in-air atmosphere. Cell viability was determined by the MTT assay and IC50 was generated using a sigmoidal dose-response nonlinear regression curve fit (GraphPad software Inc.)
Results of in vitro analysis of compounds T-1-AB, T-2-AB, T-3-AB, and T-4-AB, are shown in FIG. 4, FIG. 5, FIG. 6, FIG. 7, and Table 4.

Row | Compound | IC50 (NCI-N87 cancer cells [1]; Homo sapiens, 144 h) [nM] | Retention time [2] [min] | IC50 (NCI-N87 cancer cells [1]) [nM] | IC50 (NCI-N87 cancer cells [3]) [nM]
1 | COc1cc2c(cc1OCc1cc(O)cc(COc3cc4c(cc3OC)C(=O)N3Cc5c(ncn5C)C[C@H]3C=N4)c1)N=C[C@@H]1Cc3ncn(C)c3CN1C2=O [Compound D-101] | 17.8 ± 6.6 | – | – | –
2 | COc1cc2c(cc1OCc1cc(O)cc(COc3cc4c(cc3OC)C(=O)N3Cc5ncn(C)c5C[C@H]3C=N4)c1)N=C[C@@H]1Cc3c(ncn3C)CN1C2=O [Compound D-102] | 4.99 ± 0.785 | 6.50 | – | –
3 | COc1cc2c(cc1OCc1cc(O)cc(COc3cc4c(cc3OC)C(=O)N3Cc5ccsc5C[C@H]3C=N4)c1)N=C[C@@H]1Cc3sccc3CN1C2=O [Compound D-103] | 0.0472 ± 0.01 | 9.75 | – | –
4 | COc1cc2c(cc1OCc1cc(COc3cc4c(cc3OC)C(=O)N3Cc5ccsc5C[C@H]3C=N4)cc(CN(C)C)c1)N=C[C@@H]1Cc3sccc3CN1C2=O [Compound D-104] | 0.013 ± 0.003 | 8.98 | – | –
5 | COc1cc2c(cc1OCc1cc(O)cc(COc3cc4c(cc3OC)C(=O)N3Cc5ncn(C)c5C[C@H]3C=N4)c1)N=C[C@@H]1Cc3ccccc3CN1C2=O [Compound D-105] | 0.933 ± 0.344 | 8.05 | – | –
6 | COc1cc2c(cc1OCc1cc(COc3cc4c(cc3OC)C(=O)N3Cc5ncn(C)c5C[C@H]3C=N4)cc(CN(C)C)c1)N=C[C@@H]1Cc3c(ncn3C)CN1C2=O [Compound D-106] | 28.9 ± 15 | 6.02 | – | –
7 | COc1cc2c(cc1OCc1cc(COc3cc4c(cc3OC)C(=O)N3Cc5ccoc5C[C@H]3C=N4)cc(CN(C)C)c1)N=C[C@@H]1Cc3occc3CN1C2=O [Compound D-107] | 0.013 ± 0.002 | 8.60 | – | –
8 | COc1cc2c(cc1OCc1cc(COc3cc4c(cc3OC)C(=O)N3Cc5sccc5C[C@H]3C=N4)cc(CN(C)C)c1)N=C[C@@H]1Cc3ccsc3CN1C2=O [Compound D-108] | 0.008 ± 0.001 | – | – | –
9 | COc1cc2c(cc1OCc1cc(COc3cc4c(cc3OC)C(=O)N3Cc5cc(Br)sc5C[C@H]3C=N4)cc(CN(C)C)c1)N=C[C@@H]1Cc3sc(Br)cc3CN1C2=O [Compound D-109] | 0.025 ± 0.01 | – | – | –
10 | COc1cc2c(cc1OCc1cc(O)cc(COc3cc4c(cc3OC)C(=O)N3Cc5c(n(C)c[n+]5C)C[C@H]3C=N4)c1)N=C[C@@H]1Cc3c([n+](C)cn3C)CN1C2=O [Compound D-110] | 588 ± 223 | – | – | –
11 | COc1ccc(C2=CN3C(=O)c4cc(OC)c(OCc5cc(COc6cc7c(cc6OC)C(=O)N6Cc8ccsc8C[C@H]6C=N7)cc(CN(C)C)c5)cc4N=C[C@@H]3C2)cc1 [Compound D-114] | 1.89 | – | – | –
12 | CC[C@H](C)[C@@H]([C@@H](CC(=O)N1CCC[C@H]1[C@H](OC)[C@@H](C)C(=O)N[C@@H](Cc1ccccc1)C(=O)OC)OC)N(C)C(=O)[C@@H](NC(=O)[C@@H](NC)C(C)C)C(C)C [MMAF-OMe, reference compound] (H-[NMeV]V[Dil][Dolaproine]F-OMe) | – | – | 0.182 | –
13 | COc1cc2c(cc1OCc1cc(COc3cc4c(cc3OC)C(=O)N3Cc5ccccc5C[C@H]3C=N4)cc(CN(C)C)c1)N=C[C@@H]1Cc3ccccc3CN1C2=O [Ref-1, reference compound] | 0.013 ± 0.003 | 9.30 | – | –
14 | COc1cc2c(cc1OCc1cccc(COc3cc4c(cc3OC)C(=O)N3Cc5ccccc5C[C@H]3C=N4)c1)N=C[C@@H]1Cc3ccccc3CN1C2=O [Ref-2, reference compound] | 0.0089 ± 0.002 | – | – | –
15 | COc1cc2c(cc1OCc1cc(O)cc(COc3cc4c(cc3OC)C(=O)N3Cc5ccccc5C[C@H]3C=N4)c1)N=C[C@@H]1Cc3ccccc3CN1C2=O [Ref-3, reference compound] | 0.025 ± 0.018 | 10.00 | – | –
16 | T-DM1 | – | – | – | 0.213 ± 0.12
